Source: patent US8895522B2, “Composition and method for the prevention, treatment and/or alleviation of an inflammatory disease” (Index Pharmaceuticals AB, priority 2005, dated 2014)
In the oligonucleotide strings, read from the 5' end, every base follows the letter of its sugar. An asterisk marks phosphorothioate; unmarked linkages are phosphodiester. Other units and linkages are bracketed, terminal groups are in braces. A string of capitals states the bases alone. d = 2'-deoxy (DNA)

System: human PBMC from steroid resistant asthmatics or healthy donors
Test: Cytokine production in PBMC from steroid resistant asthmatics or healthy donors (Cytometric Bead Array)
Assay type: cell-based
Details: 25 μM or 100 μM, 48 hours, CBA
Experimental: Blood samples were obtained from healthy volunteers or steroid resistant asthmatics. PBMC were isolated by density gradient centrifugation using Ficoll-Paque Plus (Pharmacia Biotech, Uppsala, Sweden), washed three times in buffered saline solution (PBS), and re-suspended in RPMI 1640 (Sigma) containing 10% heat inactivated fetal calf serum (FCS) (Life Technologies), 100 U/mL penicillin 100 μg/mL streptomycin (Life Technologies), 2 mM L-glutamine (Sigma), gentamycin (Sigma) and 5 mM Hepes (Gibco, Life Technologies). Cells were counted using 0.4% Trypan blue solution (Sigma Aldrich)
PBMC, prepared as previously described were, directly after seeding, stimulated with SEQ.ID.NO. 1. (25 μM and 100 μM) in the presence or absence of Dex (10^−6, 10^−8 and 10^−10 M) into a 96-well flat bottomed cell culture plate at 500 000 cells/well in RPMIc. As control ODN, 1 μM of IDX0910 was used. After treatment, cells were incubated in a humified incubator at 5% carbon dioxide and 37° C. for 48 hrs. Supernatants were saved and stored at −20° C. prior to cytokine level determination.
The supernatants were kept at −20° C. until analyzed. IFN-, IL-6, IL-10, IL-2, IL-4 and TNF-alpha were measured utilizing the Cytometric Bead Array (CBA) from Becton Dickenson (BD), according to the manufacturer's protocol. The lower detection limit was 20 pg/ml for each cytokine. The FACSCalibur was used for all CBA analysis for this study.
PBMCs were incubated in medium (basal) or with 25 μM (hatched bars) or 100 μM (dotted bars) of the CpG containing SEQ.ID.NO.1 for 48 hours before detection of IL-6 in supernatant. Each bar of the histogram represents average amount of IL-6 production from 9 healthy donors and 9 steroid resistant asthmatics. Experiments were performed in triplicate for each blood donor. Background levels of IL-6 (medium) were subtracted from each group of samples.

5′-G*G*A*ACAGTTCGTCCAT*G*G*C-3′ (DNA dG*dG*dA*dAdCdAdGdTdTdCdGdTdCdCdAdT*dG*dG*dC) [SEQ.ID.NO 1, (Hu p65)AS, CpG-containing ODN; * marks phosphorothioate linkage, others phosphodiester]
significantly lower: IL-6 induced, steroid resistant PBMCs compared to healthy PBMCs (9 healthy donors and 9 steroid resistant asthmatics) | IL-10 induced, steroid resistant PBMCs compared to healthy PBMCs | interferon-gamma induced, steroid resistant PBMCs compared to healthy PBMCs
